Assay results as given in patent US20260355182A1, “ISOQUINOLINE DERIVATIVE, SYNTHESIS METHOD THEREFOR, AND USE THEREOF” (Harbin Gloria Pharmaceuticals Co., Ltd., priority 2023, published 2026).

Experiments:
SK-N-SH cells = assay: Effects of compounds on cellular ATP levels (Promega ATP assay); format: cell-based, human; details: 1 μM, 48 hours, 5% O2; untreated = 1
Method: Effects of compounds on cellular ATP levels.
Human Neuroblastoma Cell Line (SK-N-SH) is a human-derived neuroblastoma cell line. SK-N-SH cells were seeded in a 6-well plate at a density of 6×10^4 cells per well. The cells were cultured for 12 hours under 5% O2. Various drugs at a concentration of 1 μM were added. After 48 hours, the cells were harvested. Cellular ATP levels were measured using the Promega ATP assay kit. The experiment was repeated 6 times to 10 times. The experimental results were illustrated in FIG. 1. […] T1 to T11 were the experimental groups.

Pgk1 = molecular target: T1, Pgk1 (Homo sapiens, UniProt P00558); assay: Affinity for Pgk1 protein (Biacore T200); format: binding; details: drug alone; amount of small-molecule drug bound
T1 sequence (P00558 1-417): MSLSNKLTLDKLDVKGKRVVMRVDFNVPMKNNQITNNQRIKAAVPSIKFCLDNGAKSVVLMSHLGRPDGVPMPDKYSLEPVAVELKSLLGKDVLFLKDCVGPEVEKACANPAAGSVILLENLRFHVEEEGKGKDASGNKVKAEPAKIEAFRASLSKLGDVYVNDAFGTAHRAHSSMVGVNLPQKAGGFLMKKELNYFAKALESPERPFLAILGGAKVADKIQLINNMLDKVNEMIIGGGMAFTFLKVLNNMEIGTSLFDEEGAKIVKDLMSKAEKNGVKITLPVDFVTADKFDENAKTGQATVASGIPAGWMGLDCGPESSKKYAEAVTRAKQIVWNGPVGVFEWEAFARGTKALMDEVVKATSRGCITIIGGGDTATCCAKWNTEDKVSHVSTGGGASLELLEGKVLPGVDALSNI
Method: Example 30: Determination of Affinities of Compounds for Pgk1 Protein
Purified Pgk1 protein (with a concentration of 1 mg/mL) was immobilized on a Biacore T200 chip. […] The obtained curves can calculate parameters such as affinity and Rmax.

[1] = system: phosphoglycerate kinase 1 (Pgk1); details: previous studies; cited from earlier work
al adrenergic receptor = details: cited from earlier work
rats = details: combined administration of terazosin and propranolol; cited from earlier work
diabetic patients = details: cited from earlier work
patients = details: cited from earlier work
[2] = system: Parkinson's disease and related diseases; details: long-term use; cited from earlier work
[3] = system: MPTP-induced Parkinson's disease model mice; assay: MPTP-induced mouse model of Parkinson's disease, rotarod and tyrosine hydroxylase Western blot; format: in vivo
Method: Male mice aged 3 months were used and fed normally. The acute MPTP modeling method (see Sonsalla P K, Heikkila R E. The influence of dose and dosing interval on MPTP-induced dopaminergic neurotoxicity in mice. Eur J Pharmacol 1986; 129(3): 339-45.) was employed. MPTP was injected intraperitoneally four times in total at a dose of 20 mg/kg body weight per injection, with a 2-hour interval between each injection. MPTP was dissolved in normal saline, and the control group received an equal dose of normal saline. T2 was dissolved in DMSO and diluted with normal saline to the desired concentration. Accordingly, equal doses of DMSO and normal saline were administered during the treatment. On the day of MPTP model establishment, mice were administered either T2 (treatment group) or DMSO (control group). Subsequently, mice in all groups were administered the corresponding drugs daily. Mouse behavior was tested using a rotarod (E103, UGO BASILE). First, mice were pre-trained for two consecutive days at a constant speed of 15 revolutions per minute (15 rpm) until they could stay on the rod for more than 60 seconds. On day 7 after MPTP injection, mice were tested on the rotarod in an accelerating mode (2 rpm to 45 rpm). The latency to fall from the rotarod was recorded, and the behavior was monitored by a camera. After the experiment, the mice were sacrificed, and the striatal brain tissue was harvested for Western blot assay. Tyrosine hydroxylase (TH) is a protein specifically expressed in dopaminergic neurons. Therefore, whether dopaminergic neurons were damaged can be determined by Western blot assay using an anti-TH antibody.

db/db mice [4] = assay: Hypoglycemic effect in diabetic model db/db mice, intraperitoneal; format: in vivo; details: 0.6 mg/Kg i.p., 4 hours
Method: Gene knockout db/db mice are a classic model of hyperglycemia and obesity. Under normal feeding conditions, mice aged 3 months or older developed hyperglycemia and obesity. After the mice were provided with only drinking water (fasted) for 6 hours, blood was collected from the tail of the mice to measure blood glucose values. Subsequently, different drugs, including saline (control), liraglutide at 0.6 mg/Kg, low-concentration T6 (T6 low, 0.1 mg/Kg), and high-concentration T6 (T6 high, 0.5 mg/Kg), were injected intraperitoneally. 4 hours later, blood was collected from the tail of the mice to measure the blood glucose levels. Each group consisted of 6 mice. Blood glucose levels before administration (Vbefore) and after administration (Vafter) were obtained for each mouse. The effect of the drug on blood glucose (%) was calculated as follows:
(Vbefore−Vafter)×100/Vbefore.

db/db mice [5] = assay: Acute glucose-response assay in non-fasted db/db mice; format: in vivo; details: s.c., 2 h; TZ 0.5, liraglutide 0.6, T6 0.5 mg/Kg
Method: The db/db mice were used to evaluate the glucose-lowering activity of compound T6 in comparison with reference metabolic agents (TZ 0.5 mg/Kg, liraglutide 0.6 mg/Kg, T6 0.5 mg/Kg). In FIG. 15, A) for the acute glucose-response assay, drugs were administered to non-fasted db/db mice. Immediately after drug administration (s. c.), mice were deprived of food and water, and blood glucose levels were measured from tail blood samples 2 h later. The relative percentage change in blood glucose was calculated by comparing glucose levels before and after treatment in the same animal. […] HbA1c levels were then measured using a glycated hemoglobin A1c enzyme-linked immunosorbent assay, also referred to as a mouse HbA1c ELISA assay. […] Data are presented as mean±error bars, with individual circles representing individual animals. Statistical significance is indicated as P<0.001 (**) and P<0.0001 (***).

Nc1nc(N2CCN(C(=O)[C@H]3CCCO3)CC2)cc2cc3c(cc12)OCCO3 [Compound T10]
Activity in increasing cellular ATP (SK-N-SH cells): no such activity of increasing cellular ATP | Rmax (Pgk1): None

Nc1nc(N2CCN(C(=O)c3ccco3)CC2)cc2cc3c(cc12)OCO3 [Compound T11]
Activity in increasing cellular ATP (SK-N-SH cells): no such activity of increasing cellular ATP | Rmax (Pgk1): None

COc1cc2cc(N3CCN(C(=O)C4CCCO4)CC3)nc(N)c2cc1OC (centres unmarked) [TZ-md]
Binding to / activation of Pgk1 [1]: still retains the effect of activating Pgk1 | Inhibition of the al adrenergic receptor (al adrenergic receptor): does not inhibit the al adrenergic receptor | Reduction of affinity for the al adrenergic receptor (al adrenergic receptor; substitution of quinazoline nitrogen by carbon, vs terazosin): more than 1000 fold

CC(C)NCC(O)COc1cccc2ccccc12 (centres unmarked) [propranolol]
Blood glucose in rats (rats): did not affect blood glucose in rats

COc1cc2nc(N3CCN(C(=O)C4COc5ccccc5O4)CC3)nc(N)c2cc1OC (centres unmarked) [doxazosin]
Blood glucose and lipid levels (diabetic patients): efficacy is extremely limited or ineffective | Side effects (patients): intraoperative floppy iris syndrome (IFIS), hypotension, fatigue, dizziness, syncope, and blurred vision

CCOc1ccccc1OCCN[C@H](C)Cc1ccc(OC)c(S(N)(=O)=O)c1 [tamsulosin]
Effect on incidence of Parkinson's disease and related diseases [2]: do not exhibit similar effects | Side effects (patients): intraoperative floppy iris syndrome (IFIS), hypotension, fatigue, dizziness, syncope, and blurred vision

Nc1nc(N2CCN(C(=O)[C@@H]3CCCO3)CC2)cc2cc3c(cc12)OCO3 [Compound T2]
Rmax (Pgk1): 122 RU | Tyrosine hydroxylase level / dopaminergic neurons ([3]; T2 0.1 mg/Kg, striatum, Western blot): exerted a protective effect on dopaminergic neurons | Motor ability (rotarod) ([3]; T2 0.1, 0.3 and 1 mg/Kg, day 7 after MPTP): exerted protective effects

CCCCCCCCCCCCCCCC(=O)N[C@@H](CCC(=O)NCCCC[C@H](NC(=O)[C@H](C)NC(=O)[C@H](C)NC(=O)[C@H](CCC(N)=O)NC(=O)CNC(=O)[C@H](CCC(=O)O)NC(=O)[C@H](CC(C)C)NC(=O)[C@H](Cc1ccc(O)cc1)NC(=O)[C@H](CO)NC(=O)[C@H](CO)NC(=O)[C@@H](NC(=O)[C@H](CC(=O)O)NC(=O)[C@H](CO)NC(=O)[C@@H](NC(=O)[C@H](Cc1ccccc1)NC(=O)[C@@H](NC(=O)CNC(=O)[C@H](CCC(=O)O)NC(=O)[C@H](C)NC(=O)[C@@H](N)Cc1cnc[nH]1)[C@@H](C)O)[C@@H](C)O)C(C)C)C(=O)N[C@@H](CCC(=O)O)C(=O)N[C@@H](Cc1ccccc1)C(=O)N[C@H](C(=O)N[C@@H](C)C(=O)N[C@@H](Cc1c[nH]c2ccccc12)C(=O)N[C@@H](CC(C)C)C(=O)N[C@H](C(=O)N[C@@H](CCCNC(=N)N)C(=O)NCC(=O)N[C@@H](CCCNC(=N)N)C(=O)NCC(=O)O)C(C)C)[C@@H](C)CC)C(=O)O [liraglutide, reference compound]
Hypoglycemic effect (liraglutide) (db/db mice [4]): optimal hypoglycemic effect | Acute change in blood glucose (db/db mice [5]): marked reduction in blood glucose
